Data from PMC5607265, “Design, synthesis and structure-activity relationship of 3,6-diaryl-7H-[1,2,4]triazolo[3,4-b][1,3,4]thiadiazines as novel tubulin inhibitors” (Scientific Reports, 2017).
Where two headings read alike, the source gives them in different places.

Experiments:
[1] = system: lung adenocarcinoma A549 cells; experiment: MTT antiproliferative assay, A549; assay type: cell-based, human; details: MTT assay, 24 h exposure, triplicate, read-out: IC50 A549
Experimental: (§1) The SGC-7901, A549 and HT-1080 cell lines were purchased from the American Type Culture Collection (ATCC, Manassas, VA, USA). […] Briefly, approximately 3 × 10^4 cells were seeded in a 96-well plate. After 24 h of incubation at 37 °C, cells were exposed to compounds of differing concentrations for 24 h. After treatment, cells were washed with 1X PBS followed by addition of 100 µL of 0.05% MTT reagent to each well, followed by incubation for 4 h at 37 °C. After incubation, the supernatant from each well was carefully removed and the formazan crystals were dissolved in 100 µL of DMSO. The colour density was measured spectrophotometrically at 490 nm using a microplate reader (SpectraMax Plus384, Molecular Devices Corp., USA). The data were calculated and plotted as percent viability compared to control.
as §1

[2] = system: fibrosarcoma HT-1080 cells; experiment: MTT antiproliferative assay, HT-1080; assay type: cell-based, human; details: MTT assay, 24 h exposure, triplicate, read-out: IC50 HT-1080
Experimental: as §1, §1

[3] = system: gastric adenocarcinoma SGC-7901 cells; experiment: MTT antiproliferative assay, SGC-7901; assay type: cell-based, human; details: MTT assay, 24 h exposure, triplicate, read-out: IC50 SGC-7901
Experimental: as §1, §1

[4] = system: SGC-7901, A549 and HT-1080 cell lines; experiment: MTT antiproliferative assay, span over the three cell lines; assay type: cell-based, human; details: MTT assay
Experimental: as §1, §1

`COc1ccc(C2=Nn3c(nnc3-c3ccc4c(c3)OCO4)SC2)cc1F` [Compound 6a, 3-(3,4-Methylenedioxyphenyl)-6-(3-fluoro-4-methoxyphenyl)-7H-[1,2,4]triazolo[3,4-b][1,3,4]thiadiazine] gave a melting point of 93 to 95 °C, an IC50 ([1]; Homo sapiens, A549) of 0.19 µM and an IC50 ([2]; Homo sapiens, HT-1080) of 0.13 µM. The IC50 ([3]; Homo sapiens, SGC-7901) was 0.065 µM.

In the case of `COc1ccc(C2=Nn3c(nnc3-c3ccc(OC)c(OC)c3OC)SC2)cc1F` [Compound 4h, 3-(2,3,4-Trimethoxyphenyl)-6-(3-fluoro-4-methoxyphenyl)-7H-[1,2,4]triazolo[3,4-b][1,3,4]thiadiazine], the melting point is reported as 92 to 94 °C, the IC50 ([1]; Homo sapiens, A549) is reported as 16.3 µM and the IC50 ([2]; Homo sapiens, HT-1080) is reported as 51.9 µM. It also gave an IC50 ([3]; Homo sapiens, SGC-7901) of 43.2 µM.

In the case of `COc1cc(-c2nnc3n2N=C(c2ccc(SC)cc2)CS3)cc(OC)c1OC` [Compound 5d, 3-(3,4,5-Trimethoxyphenyl)-6-(4-methylthiophenyl)-7H-[1,2,4]triazolo[3,4-b][1,3,4]thiadiazine], the melting point is reported as 92 to 94 °C, the IC50 ([1]; Homo sapiens, A549) is reported as 0.46 µM and the IC50 ([2]; Homo sapiens, HT-1080) is reported as 0.18 µM. For the same compound, the IC50 ([3]; Homo sapiens, SGC-7901) was 0.13 µM.

Compound `COc1ccc(C2=Nn3c(nnc3-c3cc(OC)c(OC)c(OC)c3)SC2)cc1OCc1ccccc1` [Compound 5h, 3-(3,4,5-Trimethoxyphenyl)-6-(3-benzyloxy-4-methoxyphenyl)-7H-[1,2,4]triazolo[3,4-b][1,3,4]thiadiazine] has a melting point of 93 to 94 °C, an IC50 ([1]; Homo sapiens, A549) of 2.94 µM and an IC50 ([2]; Homo sapiens, HT-1080) of 1.57 µM. It also gave an IC50 ([3]; Homo sapiens, SGC-7901) of 1.66 µM.

`COc1ccc(-c2nnc3n2N=C(c2ccc(Br)cc2)CS3)c(OC)c1OC` [Compound 4c, 3-(2,3,4-Trimethoxyphenyl)-6-(4-bromophenyl)-7H-[1,2,4]triazolo[3,4-b][1,3,4]thiadiazines] showed a melting point of 96 to 98 °C, an IC50 ([1]; Homo sapiens, A549) of 7.37 µM and an IC50 ([2]; Homo sapiens, HT-1080) of 3.77 µM. For the same compound, the IC50 ([3]; Homo sapiens, SGC-7901) was 5.55 µM.

For `COc1ccc(-c2nnc3n2N=C(c2ccc(Cl)cc2)CS3)c(OC)c1OC` [Compound 4b, 3-(2,3,4-Trimethoxyphenyl)-6-(4-chlorophenyl)-7H-[1,2,4]triazolo[3,4-b][1,3,4]thiadiazine], the melting point was 88 to 90 °C, the IC50 ([1]; Homo sapiens, A549) was 23.2 µM and the IC50 ([2]; Homo sapiens, HT-1080) was 24.7 µM. It also gave an IC50 ([3]; Homo sapiens, SGC-7901) of 24.5 µM.

With `COc1ccc(C2=Nn3c(nnc3-c3ccc4c(c3)OCO4)SC2)cc1[N+](=O)[O-]` [Compound 6b, 3-(3,4-Methylenedioxyphenyl)-6-(3-nitro-4-methoxyphenyl)-7H-[1,2,4]triazolo[3,4-b][1,3,4]thiadiazine] the melting point was 90 to 92 °C, the IC50 ([1]; Homo sapiens, A549) was 15.7 µM and the IC50 ([2]; Homo sapiens, HT-1080) was 0.08 µM. For the same compound, the IC50 ([3]; Homo sapiens, SGC-7901) was 10.5 µM.

Compound `COc1ccc(-c2nnc3n2N=C(c2ccc(OC)c([N+](=O)[O-])c2)CS3)cc1` [Compound 6j, 3-(4-Methoxyphenyl)-6-(3-nitro-4-methoxyphenyl)-7H-[1,2,4]triazolo[3,4-b][1,3,4]thiadiazine] has a melting point of 97 to 99 °C, an IC50 ([1]; Homo sapiens, A549) of 5.68 µM and an IC50 ([2]; Homo sapiens, HT-1080) of 2.32 µM. The IC50 ([3]; Homo sapiens, SGC-7901) was 8.04 µM.

`COc1ccc(C2=Nn3c(nnc3-c3cc(OC)c(OC)c(OC)c3)SC2)cc1F` [Compound 5e, 3-(3,4,5-Trimethoxyphenyl)-6-(3-fluoro-4-methoxyphenyl)-7H-[1,2,4]triazolo[3,4-b][1,3,4]thiadiazine] showed a melting point of 115 to 118 °C, an IC50 ([1]; Homo sapiens, A549) of 3.21 µM and an IC50 ([2]; Homo sapiens, HT-1080) of 1.31 µM. It also gave an IC50 ([3]; Homo sapiens, SGC-7901) of 4.28 µM.

For `COc1ccc(C2=Nn3c(nnc3-c3cc(OC)c(OC)c(OC)c3)SC2)cc1[N+](=O)[O-]` [Compound 5f, 3-(3,4,5-Trimethoxyphenyl)-6-(3-nitro-4-methoxyphenyl)-7H-[1,2,4]triazolo[3,4-b][1,3,4]thiadiazine], the melting point was 212 to 213 °C, the IC50 ([1]; Homo sapiens, A549) was 8.88 µM and the IC50 ([2]; Homo sapiens, HT-1080) was 5.76 µM. It also gave an IC50 ([3]; Homo sapiens, SGC-7901) of 11.3 µM.

`COc1cc(-c2nnc3n2N=C(c2ccc(C(F)(F)F)cc2)CS3)cc(OC)c1OC` [Compound 5c, 3-(3,4,5-Trimethoxyphenyl)-6-(4-(trifluoromethyl)phenyl)-7H-[1,2,4]triazolo[3,4-b][1,3,4]thiadiazine] gave a melting point of 105 to 106 °C, an IC50 ([1]; Homo sapiens, A549) of 7.72 µM and an IC50 ([2]; Homo sapiens, HT-1080) of 0.75 µM. It also gave an IC50 ([3]; Homo sapiens, SGC-7901) of 1.17 µM.

In the case of `COc1ccc(-c2nnc3n2N=C(c2ccc(OC)c([N+](=O)[O-])c2)CS3)cc1OC` [Compound 6f, 3-(3,4-Dimethoxyphenyl)-6-(3-nitro-4-methoxyphenyl)-7H-[1,2,4]triazolo[3,4-b][1,3,4]thiadiazine], the melting point is reported as 190 to 192 °C, the IC50 ([1]; Homo sapiens, A549) is reported as 3.68 µM and the IC50 ([2]; Homo sapiens, HT-1080) is reported as 3.32 µM. It also gave an IC50 ([3]; Homo sapiens, SGC-7901) of 5.04 µM.

In the case of `COc1cc(-c2nnc3n2N=C(c2ccc(C)cc2)CS3)cc(OC)c1OC` [Compound 5b, 3-(3,4,5-Trimethoxyphenyl)-6-(4-methyphenyl)-7H-[1,2,4]triazolo[3,4-b][1,3,4]thiadiazine], the “antiproliferative activity in words” value ([4]; SGC-7901, A549 and HT-1080) is reported as “IC50 values at the nanomolar level”, the IC50 ([4]; range over SGC-7901, A549 and HT-1080, read-out: IC50 range against the three human cancer cell lines) is reported as 0.016 to 0.027 µM and the IC50 [1] is reported as 0.019 µM. For the same compound, the IC50 [2] was 0.016 µM and the IC50 [3] was 0.027 µM.

For `COc1cc(-c2nnc3n2N=C(c2ccc(Cl)cc2)CS3)cc(OC)c1OC` [Compound 5a, 3-(3,4,5-Trimethoxyphenyl)-6-(4-chlorophenyl)-7H-[1,2,4]triazolo[3,4-b][1,3,4]thiadiazine], the melting point was 125 to 127 °C, the IC50 ([1]; Homo sapiens, A549) was 0.27 µM and the IC50 ([2]; Homo sapiens, HT-1080) was 0.88 µM. It also gave an IC50 ([3]; Homo sapiens, SGC-7901) of 1.37 µM.

In the case of `COc1ccc(C2=Nn3c(nnc3-c3ccc(OC)c(OC)c3OC)SC2)cc1[N+](=O)[O-]` [Compound 4i, 3-(2,3,4-Trimethoxyphenyl)-6-(3-nitro-4-methoxyphenyl)-7H-[1,2,4]triazolo[3,4-b][1,3,4]thiadiazine], the melting point is reported as 134 to 136 °C, the IC50 ([1]; Homo sapiens, A549) is reported as 16.5 µM and the IC50 ([2]; Homo sapiens, HT-1080) is reported as 15.9 µM. For the same compound, the IC50 ([3]; Homo sapiens, SGC-7901) was 13.2 µM.

In the case of `COc1ccc(-c2nnc3n2N=C(c2ccc(F)c(F)c2)CS3)c(OC)c1OC` [Compound 4m, 3-(2,3,4-Trimethoxyphenyl)-6-(3,4-difluorophenyl)-7H-[1,2,4]triazolo[3,4-b][1,3,4]thiadiazine], the melting point is reported as 95 to 97 °C, the IC50 ([1]; Homo sapiens, A549) is reported as 78.1 µM and the IC50 ([2]; Homo sapiens, HT-1080) is reported as 81.3 µM. For the same compound, the IC50 ([3]; Homo sapiens, SGC-7901) was 73.2 µM.

`COc1ccc(C2=Nn3c(nnc3-c3ccc(OC)c(OC)c3OC)SC2)cc1` [Compound 4f, 3-(2,3,4-Trimethoxyphenyl)-6-(4-methoxyphenyl)-7H-[1,2,4]triazolo[3,4-b][1,3,4]thiadiazine] showed a melting point of 92 to 95 °C, an IC50 ([1]; Homo sapiens, A549) of 50.2 µM and an IC50 ([2]; Homo sapiens, HT-1080) of 61.4 µM. It also gave an IC50 ([3]; Homo sapiens, SGC-7901) of 62.7 µM.

`COc1ccc(C2=Nn3c(nnc3-c3ccc4c(c3)OCO4)SC2)cc1OCc1ccccc1` [Compound 6d, 3-(3,4-Methylenedioxyphenyl)-6-(3-benzyloxy-4-methoxyphenyl)-7H-[1,2,4]triazolo[3,4-b][1,3,4]thiadiazine] gave a melting point of 86 to 88 °C, an IC50 ([1]; Homo sapiens, A549) of 16.3 µM and an IC50 ([2]; Homo sapiens, HT-1080) of 7.32 µM. It also gave an IC50 ([3]; Homo sapiens, SGC-7901) of 8.49 µM.

With `COc1ccc(-c2nnc3n2N=C(c2ccc(F)cc2)CS3)c(OC)c1OC` [Compound 4a, 3-(2,3,4-Trimethoxyphenyl)-6-(4-fluorophenyl)-7H-[1,2,4]triazolo[3,4-b][1,3,4]thiadiazine] the melting point was 92 to 94 °C, the IC50 ([1]; Homo sapiens, A549) was 21.2 µM and the IC50 ([2]; Homo sapiens, HT-1080) was 31.3 µM. For the same compound, the IC50 ([3]; Homo sapiens, SGC-7901) was 32.6 µM.

Work on `COc1ccc(C2=Nn3c(nnc3-c3ccc(OC)c(OC)c3OC)SC2)cc1OCc1ccccc1` [Compound 4k, 3-(2,3,4-Trimethoxyphenyl)-6-(3-benzyloxy-4-methoxyphenyl)-7H-[1,2,4]triazolo[3,4-b][1,3,4]thiadiazine] yielded a melting point of 85 to 86 °C, an IC50 ([1]; Homo sapiens, A549) of 8.9 µM and an IC50 ([2]; Homo sapiens, HT-1080) of 28.3 µM. For the same compound, the IC50 ([3]; Homo sapiens, SGC-7901) was 28.9 µM.

`COc1ccc(-c2nnc3n2N=C(c2ccc(C(F)(F)F)cc2)CS3)c(OC)c1OC` [Compound 4e, 3-(2,3,4-Trimethoxyphenyl)-6-(4-(trifluoromethyl)phenyl)-7H-[1,2,4]triazolo[3,4-b][1,3,4]thiadiazine] gave a melting point of 95 to 96 °C, an IC50 ([1]; Homo sapiens, A549) of 85.4 µM and an IC50 ([2]; Homo sapiens, HT-1080) of 10.5 µM. It also gave an IC50 ([3]; Homo sapiens, SGC-7901) of 2.42 µM.

For `COc1ccc(-c2nnc3n2N=C(c2ccc(SC)cc2)CS3)c(OC)c1OC` [Compound 4g, 3-(2,3,4-Trimethoxyphenyl)-6-(4-methylthiophenyl)-7H-[1,2,4]triazolo[3,4-b][1,3,4]thiadiazine], the melting point was 86 to 88 °C, the IC50 ([1]; Homo sapiens, A549) was 12.5 µM and the IC50 ([2]; Homo sapiens, HT-1080) was 2.7 µM. The IC50 ([3]; Homo sapiens, SGC-7901) was 8.02 µM.

For `COc1cccc(-c2nnc3n2N=C(c2ccc(OC)c([N+](=O)[O-])c2)CS3)c1` [Compound 6h, 3-(3-Methoxyphenyl)-6-(3-nitro-4-methoxyphenyl)-7H-[1,2,4]triazolo[3,4-b][1,3,4]thiadiazine], the melting point was 207 to 208 °C, the IC50 ([1]; Homo sapiens, A549) was 4.2 µM and the IC50 ([2]; Homo sapiens, HT-1080) was 1.91 µM. The IC50 ([3]; Homo sapiens, SGC-7901) was 2.55 µM.

For `COc1ccc(C2=Nn3c(nnc3-c3cc(OC)c(OC)c(OC)c3)SC2)cc1N` [Compound 5g, 3-(3,4,5-Trimethoxyphenyl)-6-(3-amino-4-methoxyphenyl)-7H-[1,2,4]triazolo[3,4-b][1,3,4]thiadiazine], the melting point was 112 to 115 °C, the IC50 ([1]; Homo sapiens, A549) was 1.08 µM and the IC50 ([2]; Homo sapiens, HT-1080) was 0.18 µM. For the same compound, the IC50 ([3]; Homo sapiens, SGC-7901) was 1.25 µM.
